Reference: US5145869A, “Phenylsulfonylalkanoic acid compounds and pharmaceuticals thereof” (Kissei Pharmaceutical Co., Ltd., priority 1991, dated 1992)

These compounds were tested against T1, CCK-Receptor (Rattus norvegicus, UniProt P30551) (assay: CCK-Receptor Binding Assay in Pancreas). Conditions: inhibition of specific 125I-CCK-8 (30 pM) binding, rat pancreatic plasma membranes, 37° C., 30 minutes, pH 7.4.
T1 construct: Pancreatic plasma membranes were prepared by the method of Chang et al; from tissue; host or cells: pancreatic plasma membranes of male Wistar rats
T1 sequence (P30551 1-444): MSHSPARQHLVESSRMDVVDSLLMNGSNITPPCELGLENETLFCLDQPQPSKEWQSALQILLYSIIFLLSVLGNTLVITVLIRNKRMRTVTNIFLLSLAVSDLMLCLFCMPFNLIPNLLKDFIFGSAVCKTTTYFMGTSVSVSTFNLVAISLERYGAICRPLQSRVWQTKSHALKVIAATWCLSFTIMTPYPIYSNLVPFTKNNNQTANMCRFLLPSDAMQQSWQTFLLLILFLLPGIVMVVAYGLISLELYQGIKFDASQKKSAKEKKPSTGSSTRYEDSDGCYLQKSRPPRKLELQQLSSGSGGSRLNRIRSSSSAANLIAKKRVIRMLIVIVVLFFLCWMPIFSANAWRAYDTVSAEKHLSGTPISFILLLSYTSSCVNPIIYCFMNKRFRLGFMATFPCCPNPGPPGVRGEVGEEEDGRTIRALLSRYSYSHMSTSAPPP
Parameters: species or system Male Wistar rats
Experimental: CCK-Receptor Binding Assay in Pancreas
Pancreatic plasma membranes were prepared by the method of Chang et al. (Molecular Pharmacology, Vol. 30, p. 212-, 1986). Male Wistar rats were sacrificed by decapitation and the pancreas was removed. The pancreas was dissected free from adipose tissue and minced in 50 volumes ice-cold Tris-HCl buffer (50 mM, pH 7.4 at 37° C.). Homogenization was performed using ultra disperser and the homogenate was centrifuged at 50,000×g for 10 minutes. The pellet was washed by resuspension in the same volume of fresh Tris-HCl buffer and again centrifuged as above. The final pellet was suspended in assay buffer (50 mM Tris-HCl, 5 mM MgCl2, 5 mM dithiothreitol, 2 mg/ml of bovine serum albumin, and 0.14 mg/ml of bacitracin), and used as receptor sources for binding assay.
Thirty pM ^125 I-CCK-8 (final concentration), test drug or vehicle (for total binding) or 10^-6 M CCK-8 (for nonspecific binding) were added to the assay medium containing pancreatic plasma membranes (0.5 mg of original wet weight/ml). After incubation at 37° C. for 30 minutes, the assay medium was filtrated under reduced pressure through glass fiber filter and washed four times with 4 ml of ice-cold Tris-HCl buffer. The radioactivity trapped on the filter was counted by γ-counter (Packard 5650).
Specific binding was defined as the radioactivity bound after subtracting nonspecific binding determined in the presence of 10^-6 M unlabeled CCK-8. IC50 value was calculated from inhibition percentage of specific binding by each test drug.
For `CCCCCN(CCCCC)C(=O)C(CCC(=O)OC)CS(=O)(=O)c1ccc(Cl)c(Cl)c1` (racemic) [Compound 1, Methyl 5-(3,4-dichlorophenylsulfonyl)-4-(N,N-dipentylcarbamoyl)pentanoate], the IC50 was 880 nM.
Compound `CCCCCN(CCCCC)C(=O)C(CCC(=O)O)CS(=O)(=O)c1ccc(Cl)c(Cl)c1` (racemic) [Compound 19, 5-(3,4-Dichlorophenylsulfonyl)-4-(N,N-dipentylcarbamoyl)pentanoic acid] has an IC50 of 200 nM.
With `CCCCCN(CCCOC)C(=O)C(CCC(=O)O)CS(=O)(=O)c1ccc(Cl)c(Cl)c1` (racemic) [Compound 22, 5-(3,4-dichlorophenylsulfonyl)-4-[N-(3-methoxypropyl)-N-pentylcarbamoyl]pentanoic acid] the IC50 was 230 nM.
In the case of `CCCCCN(CCCCC)C(=O)C(CCC(=O)O)CS(=O)(=O)c1cccc(Cl)c1` (racemic) [Compound 27], the IC50 is reported as 4700 nM.
Work on `CCCCCN(CCCCC)C(=O)C(CCC(=O)O)CS(=O)(=O)c1cccc(Br)c1` (racemic) [Compound 28] yielded an IC50 of 3000 nM.
`CCCCCN(CCCCC)C(=O)C(CC(=O)O)CS(=O)(=O)c1ccc(Cl)c(Cl)c1` (racemic) [Compound 29] gave an IC50 of 95 nM.
With `CCCCCN(CCCCC)C(=O)C(CCCC(=O)O)CS(=O)(=O)c1ccc(Cl)c(Cl)c1` (racemic) [Compound 30] the IC50 was 230 nM.
With `CCCCN(C)C(=O)C(CCC(=O)O)CS(=O)(=O)c1ccc(Cl)c(Cl)c1` (racemic) [Compound 31] the IC50 was 8800 nM.
For `CCCCN(CCCC)C(=O)C(CCC(=O)O)CS(=O)(=O)c1ccc(Cl)c(Cl)c1` (racemic) [Compound 32], the IC50 was 280 nM.
`CCCCCCN(CCCCCC)C(=O)C(CCC(=O)O)CS(=O)(=O)c1ccc(Cl)c(Cl)c1` (racemic) [Compound 33] was tested, and the IC50 was 59 nM.
With `CCCCCCCN(CCCCCCC)C(=O)C(CCC(=O)O)CS(=O)(=O)c1ccc(Cl)c(Cl)c1` (racemic) [Compound 34] the IC50 was 430 nM.
`CC(C)CCN(CCC(C)C)C(=O)C(CCC(=O)O)CS(=O)(=O)c1ccc(Cl)c(Cl)c1` (racemic) [Compound 35] was tested, and the IC50 was 130 nM.
`CCCCCN(CCCCC)C(=O)C(CCC(=O)O)CS(=O)(=O)c1ccc(Cl)c(Cl)c1` (single isomer, unassigned) [Compound 20] gave an IC50 of 110 nM.
With `CCCCCN(CCCCC)C(=O)C(CCC(=O)O)CS(=O)(=O)c1ccc(Cl)c(Cl)c1` (single isomer, unassigned) [Compound 21] the IC50 was 1100 nM.
`CCCCCN(CCCOC)C(=O)C(CCC(=O)O)CS(=O)(=O)c1ccc(Cl)c(Cl)c1` (single isomer, unassigned) [Compound 23] was tested, and the IC50 was 290 nM.
With `CCCCCN(CCCOC)C(=O)C(CCC(=O)O)CS(=O)(=O)c1ccc(Cl)c(Cl)c1` (single isomer, unassigned) [Compound 24] the IC50 was 4000 nM.
`CCCCCN(CCCCC)C(=O)C(CC(=O)OC)CS(=O)(=O)c1ccc(Cl)c(Cl)c1` (stereo not drawn) [Compound 11] gave an IC50 of 980 nM.
With `CCCCCN(CCCCC)C(=O)C(CCCC(=O)OC)CS(=O)(=O)c1ccc(Cl)c(Cl)c1` (stereo not drawn) [Compound 12] the IC50 was 4800 nM.
`CCCCCN(CCCCC)C(=O)C(CCC(=O)OCC)CS(=O)(=O)c1ccc(Cl)c(Cl)c1` (stereo not drawn) [Compound 18] showed an IC50 of 1100 nM.
`CCCCCN(CCCCC)C(=O)C(CCC(=O)O)CS(=O)(=O)c1cc(Cl)cc(Cl)c1` (stereo not drawn) [Compound 25] gave an IC50 of 1500 nM.
`CCCCCN(CCCCC)C(=O)C(CCC(=O)O)CS(=O)(=O)c1ccc(Cl)cc1` (stereo not drawn) [Compound 26] gave an IC50 of 1000 nM.
With `CCCCCCN(CCCCc1ccccc1)C(=O)C(CCC(=O)OC)CS(=O)(=O)c1ccc(Cl)c(Cl)c1` (stereo not drawn) [Compound 40] the IC50 was 5800 nM.
`COC(=O)CCC(CS(=O)(=O)c1ccc(Cl)c(Cl)c1)C(=O)N(C)Cc1ccccc1` (stereo not drawn) [Compound 41, methyl 4-(N-benzyl-N-methylcarbamoyl)-5-(3,4-dichlorophenylsulfonyl)pentanoate] gave an IC50 of 3500 nM.
For `CCCCCN(CCc1ccccc1)C(=O)C(CCC(=O)O)CS(=O)(=O)c1ccc(Cl)c(Cl)c1` (stereo not drawn) [Compound 42, 5-(3,4-dichlorophenylsulfonyl)-4-(N-pentyl-N-phenethylcarbamoyl)pentanoic acid], the IC50 was 210 nM.
`CCCCCN(CCCc1ccccc1)C(=O)C(CCC(=O)O)CS(=O)(=O)c1ccc(Cl)c(Cl)c1` (stereo not drawn) [Compound 43] was tested, and the IC50 was 110 nM.
In the case of `O=C(O)CCC(CS(=O)(=O)c1ccc(Cl)c(Cl)c1)C(=O)N(CCc1ccccc1)CCc1ccccc1` (stereo not drawn) [Compound 44], the IC50 is reported as 230 nM.
For `O=C(O)CCC(CS(=O)(=O)c1ccc(Cl)c(Cl)c1)C(=O)N(CCCc1ccccc1)CCCc1ccccc1` (stereo not drawn) [Compound 45], the IC50 was 1000 nM.
`CCCCCCN(CCCCc1ccccc1)C(=O)C(CCC(=O)O)CS(=O)(=O)c1ccc(Cl)c(Cl)c1` (stereo not drawn) [Compound 46] gave an IC50 of 570 nM.
With `CN(Cc1ccccc1)C(=O)C(CCC(=O)O)CS(=O)(=O)c1ccc(Cl)c(Cl)c1` (stereo not drawn) [Compound 47] the IC50 was 1800 nM.
With `CCCCCN(CCCCC)C(=O)C(CCC(=O)O)CS(=O)(=O)c1ccc(C)c(C)c1` (stereo not drawn) [Compound 48] the IC50 was 290 nM.
Work on `CCCCCN(CCCCC)C(=O)C(CCC(=O)O)CS(=O)(=O)c1ccc(C)cc1` (stereo not drawn) [Compound 49] yielded an IC50 of 3400 nM.
`CCCCCN(CCCCC)C(=O)C(CCC(=O)O)CS(=O)(=O)c1ccc([N+](=O)[O-])cc1` (stereo not drawn) [Compound 50] was tested, and the IC50 was 730 nM.
`CCCCCN(CCCCC)C(=O)C(CCC(=O)O)CS(=O)(=O)c1ccc(C(C)=O)cc1` (stereo not drawn) [Compound 51, 5-(4-Acetylphenylsulfonyl)-4-(N,N-dipentylcarbamoyl)pentanoic acid] was tested, and the IC50 was 2000 nM.

Each compound was assayed on gallbladder contraction induced by CCK-8 (assay: CCK-Antagonism in Isolated Gallbladder). Conditions: Cavia porcellus; antagonism of gallbladder strip contraction induced by 10^-8 M CCK-8, 37° C.
Format: cell-based, male Hartley guinea-pig
Experimental: CCK-Antagonism in Isolated Gallbladder
Gallbladder strips isolated from male Hartley guinea-pig were prepared and suspended in Magnus bath filled with Krebs solution (1 g of initial tension). The solution kept at 37° C. was aerated with a mixture of 95% O2 and 5% CO2. The isometric contraction of strips was recorded through a force-displacement transducer. Antagonism by test drugs against gallbladder contraction induced by 10^-8 M CCK-8 was examined and IC50 value was calculated.
With `CCCCCN(CCCCC)C(=O)C(CCC(=O)O)CS(=O)(=O)c1ccc(Cl)c(Cl)c1` (racemic) [Compound 19, 5-(3,4-Dichlorophenylsulfonyl)-4-(N,N-dipentylcarbamoyl)pentanoic acid] the IC50 was 11000 nM.
Compound `CCCCCN(CCCOC)C(=O)C(CCC(=O)O)CS(=O)(=O)c1ccc(Cl)c(Cl)c1` (racemic) [Compound 22, 5-(3,4-dichlorophenylsulfonyl)-4-[N-(3-methoxypropyl)-N-pentylcarbamoyl]pentanoic acid] has an IC50 of 3400 nM.
In the case of `CCCCCN(CCCCC)C(=O)C(CCC(=O)O)CS(=O)(=O)c1ccc(Cl)c(Cl)c1` (single isomer, unassigned) [Compound 20], the IC50 is reported as 5100 nM.

The compounds below were run on amylase secretion stimulated by CCK-8 (assay: Effect on Amylase Secretion in Rats). Conditions: Rattus norvegicus, intraduodenal administration 30 minutes before CCK-8 (10 μg/kg, subcutaneous), anesthetized rats.
Format: in vivo, Male Wistar rats
Experimental: Effect on Amylase Secretion in Rats
Male Wistar rats were anesthetized with urethane (1.5 g/kg, S.C.), and tracheal cannula was inserted. Biliopancreatic juice was collected from the cannula which had been inserted into the common bile duct. Thirty minutes after intraduodenal administration of test drug, amylase secretion was stimulated by subcutaneous injection of CCK-8 (10 μg/kg). Amylase concentration in the sample collected every 30 minutes during experiment was assayed using Amylase B Test (Wako), and ED50 value was calculated.
With `CCCCCN(CCCCC)C(=O)C(CCC(=O)O)CS(=O)(=O)c1ccc(Cl)c(Cl)c1` (racemic) [Compound 19, 5-(3,4-Dichlorophenylsulfonyl)-4-(N,N-dipentylcarbamoyl)pentanoic acid] the ED50 was 2.2 mg/kg.
With `CCCCCN(CCCOC)C(=O)C(CCC(=O)O)CS(=O)(=O)c1ccc(Cl)c(Cl)c1` (racemic) [Compound 22, 5-(3,4-dichlorophenylsulfonyl)-4-[N-(3-methoxypropyl)-N-pentylcarbamoyl]pentanoic acid] the ED50 was 9.5 mg/kg.
`CCCCCN(CCCCC)C(=O)C(CCC(=O)O)CS(=O)(=O)c1ccc(Cl)c(Cl)c1` (single isomer, unassigned) [Compound 20] gave an ED50 of 4.7 mg/kg.
